Measured values taken from patent publication US20050197371A1, “Urea derivatives as PDGFR modulators” (Ambit Biosciences Corporation, priority 2003, published 2005).
pKd: −log10 of the molar value.

These compounds were tested against T1, PDGFRB(DKIN) (PDGFR-β) (Homo sapiens, UniProt P09619) (assay: Phage-display competitive binding assay, PDGFRB(DKIN)). Conditions: T7 phage displaying human PDGFR-β, DKIN construct; read-out: Binding Assay: PDGFRB(DKIN).
T1 construct: PDGFRB(DKIN)
Method: The term “ND” represents non-determined values.
Briefly, T7 phage displaying human PDGFR-β were incubated with an affinity matrix coated with known PDGFR-β inhibitor in the presence of various concentrations of the soluble competitor molecules.

pKd	SMILES
< 5.00	CC(C)(C)c1cc(NC(=S)Nc2ccc(N3CCOCC3)cc2)no1 [Compound F1, 1-(5-tert-butylisoxazol-3-yl)-3-(4-morpholinophenyl)thiourea]
6.00 to 7.00	CC(C)(C)c1cc(NC(=O)Nc2ccc(OCc3ccccc3C(F)(F)F)cc2)no1 [Compound G4]
> 7.00	CC(C)(C)c1cc(NC(=O)Nc2ccc(OCc3ccc(OC(F)(F)F)cc3)cc2)no1 [Compound G5]
> 7.00	CC(C)(C)c1cc(NC(=O)Nc2ccc(OCc3ccc(C(F)(F)F)cc3)cc2)no1 [Compound G6]
> 7.00	COC(=O)c1cccc(COc2ccc(NC(=O)Nc3cc(C(C)(C)C)on3)cc2)c1 [Compound G7]
6.00 to 7.00	CC(C)(C)c1cc(NC(=O)Nc2ccc(OCc3ccccc3-c3ccccc3)cc2)no1 [Compound G8]
6.00 to 7.00	CC(C)(C)c1cc(NC(=O)Nc2ccc(OCc3ccc(C(=O)c4ccccc4)cc3)cc2)no1 [Compound G9]
> 7.00	CC(C)(C)c1cc(NC(=O)Nc2ccc(OCc3ccccc3Cl)cc2)no1 [Compound G10]
> 7.00	CC(C)(C)c1cc(NC(=O)Nc2ccc(OCc3cccc(Cl)c3)cc2)no1 [Compound G11]
> 7.00	CC(C)(C)c1cc(NC(=O)Nc2ccc(OCc3ccccc3F)cc2)no1 [Compound G12, 1-(4-(2-fluorobenzyloxy)phenyl)-3-(5-tert-butylisoxazol-3-yl)urea]
> 7.00	COc1cccc(COc2ccc(NC(=O)Nc3cc(C(C)(C)C)on3)cc2)c1 [Compound G13]
> 7.00	CC(C)(C)c1cc(NC(=O)Nc2ccc(OCc3cccc(F)c3)cc2)no1 [Compound G14]
> 7.00	Cc1ccc(COc2ccc(NC(=O)Nc3cc(C(C)(C)C)on3)cc2)cc1 [Compound G15]
6.00 to 7.00	CC(Oc1ccc(NC(=O)Nc2cc(C(C)(C)C)on2)cc1)c1ccccc1 (stereo not drawn) [Compound G17]
> 7.00	CC(C)(C)c1cc(NC(=O)Nc2ccc(OCc3ccc(F)cc3Cl)cc2)no1 [Compound G18]
6.00 to 7.00	CC(C)(C)c1cc(NC(=O)Nc2ccc(OCc3c(Cl)cccc3Cl)cc2)no1 [Compound G19]
> 7.00	CCOc1ccc(NC(=O)Nc2cc(C(C)(C)C)on2)cc1 [Compound G20]
> 7.00	CC(C)(C)c1cc(NC(=O)Nc2ccc(OCc3c(F)cccc3F)cc2)no1 [Compound G21]
> 7.00	CC(C)(C)c1cc(NC(=O)Nc2ccc(OCCc3ccncc3)cc2)no1 [Compound G22]
> 7.00	CC(C)(C)c1cc(NC(=O)Nc2ccc(OC/C=C/c3ccccc3Cl)cc2)no1 [Compound G26]

pKd	SMILES
6.00 to 7.00	CC(C)(C)c1cc(NC(=O)Nc2ccc(OCC(O)CO)cc2)no1 (stereo not drawn) [Compound G28]
> 7.00	CC(C)(C)c1cc(NC(=O)Nc2ccc(OCc3ccccc3)cc2)on1 [Compound G30]
> 7.00	CC(C)(C)c1cc(NC(=O)Nc2ccc(OCc3ccccc3)cc2)no1 [Compound G31]
> 7.00	C=CCOc1ccc(NC(=O)Nc2cc(C(C)(C)C)no2)cc1 [Compound G32]
> 7.00	CC(C)Oc1ccc(NC(=O)Nc2cc(C(C)(C)C)no2)cc1 [Compound G33]
> 7.00	CC(C)(C)c1cc(NC(=O)Nc2ccc(OCc3ccc(Cl)cc3)cc2)no1 [Compound G34]
> 7.00	CC(C)(C)c1cc(NC(=O)Nc2ccc(OCc3ccc(F)cc3)cc2)no1 [Compound G35]
> 7.00	CC(C)(C)c1cc(NC(=O)Nc2ccc(OCC3CC3)cc2)no1 [Compound G37]
6.00 to 7.00	Cc1ccc(-n2nc(C(C)(C)C)cc2NC(=O)Nc2ccc(OCCN3CCOC(CO)C3)c3ccccc23)cc1 (stereo not drawn) [Compound G38]
> 7.00	CC(C)(C)c1cc(NC(=O)Nc2ccc(OCC3CCC3)cc2)no1 [Compound G39]
5.00 to 6.00	CC(C)(C)c1cc(NC(=O)Nc2ccc(OCCN3CCOCC3)cc2)no1 [Compound G40]
6.00 to 7.00	CC1CN(CCOc2ccc(NC(=O)Nc3cc(C(C)(C)C)on3)cc2)CC(C)O1 (stereo not drawn) [Compound G42]
< 5.00	CC1CCCN(CCOc2ccc(NC(=O)Nc3cc(C(C)(C)C)on3)cc2)C1 (stereo not drawn) [Compound G44]
5.00 to 6.00	CC1CN(CCOc2ccc(NC(=O)Nc3cc(C(C)(C)C)on3)cc2)CCN1 (stereo not drawn) [Compound G46]
5.00 to 6.00	CC(C)(C)c1cc(NC(=O)Nc2ccc(OCCN3CCC(O)CC3)cc2)no1 [Compound G48]
6.00 to 7.00	CC(C)(C)c1cc(NC(=O)Nc2ccc(OCCN3CCSCC3)cc2)no1 [Compound G53]
6.00 to 7.00	CC(C)(C)c1cc(NC(=O)Nc2ccc(OCc3ccc4nonc4c3)cc2)no1 [Compound G55]
> 7.00	CC(C)(C)c1cc(NC(=O)Nc2ccc(OCc3ccc(-c4ccccc4)cc3)cc2)no1 [Compound G56]
6.00 to 7.00	Cn1nc(C(C)(C)C)cc1NC(=O)Nc1ccc(OCc2ccccc2)cc1 [Compound H2]
5.00 to 6.00	Cc1cc(NC(=O)Nc2ccc(OCc3ccccc3)cc2)n(-c2ccccc2)n1 [Compound H4]

pKd	SMILES
< 5.00	Cn1nc(C2CC2)cc1NC(=O)Nc1ccc(OCc2ccccc2)cc1 [Compound H7]
6.00 to 7.00	O=C(Nc1ccc(OCc2ccccc2)cc1)Nc1cc(C2CC2)nn1-c1ccccc1 [Compound H8]
5.00 to 6.00	Cc1ccc(-n2nc(C(C)(C)C)cc2NC(=O)Nc2cc(C(C)(C)C)on2)cc1 [Compound H11]
5.00 to 6.00	Cc1ccc(-n2nc(C(C)(C)C)cc2NC(=O)Nc2ccc(Br)cc2C(F)(F)F)cc1 [Compound H13]
6.00 to 7.00	Cc1ccc(-n2nc(C(C)(C)C)cc2NC(=O)Nc2ccc(Cl)cc2)cc1 [Compound H14]
6.00 to 7.00	CN(Cc1cccc([N+](=O)[O-])c1)C(=O)Nc1cc(C(C)(C)C)on1 [Compound J3]
< 5.00	COc1ccc(N(C)C(=O)N(C)c2cc(C(C)(C)C)no2)cc1 [Compound J8]
> 7.00	COc1ccc(N(C)C(=O)Nc2cc(C(C)(C)C)on2)cc1 [Compound J10]
< 5.00	CCOC(=O)NN(C(=O)Nc1cc(C(C)(C)C)on1)c1ccc(OC)cc1 [Compound J13]
< 5.00	COc1ccc(N(N)C(=O)Nc2cc(C(C)(C)C)on2)cc1 [Compound J14]
6.00 to 7.00	CC(C)(C)c1cc(NC(=O)Nc2ccc(OCCN3CCOCC3)c3ccccc23)no1 [Compound K1]
> 7.00	CC(C)(C)c1cc(NC(=O)Nc2ccc(NC(=O)c3cn4cc(Cl)ccc4n3)cc2)no1 [Compound N3]
> 7.00	CC(C)(C)c1cc(NC(=O)Nc2ccc(NC(=O)c3cccc(Cl)n3)cc2)no1 [Compound N4]
6.00 to 7.00	Cn1nc(-c2ccccc2)c2cc(C(=O)Nc3ccc(NC(=O)Nc4cc(C(C)(C)C)[nH]n4)cc3)[nH]c21 [Compound N5]
6.00 to 7.00	CC(C)(C)c1cc(NC(=O)Nc2ccc(NC(=O)c3ncccc3C(N)=O)cc2)n[nH]1 [Compound N6]
> 7.00	CC(C)(C)c1cc(NC(=O)Nc2ccc(NC(=O)c3cc([N+](=O)[O-])ccn3)cc2)no1 [Compound N7]
> 7.00	CC(C)(C)c1cc(NC(=O)Nc2ccc(NC(=O)c3cccc(F)n3)cc2)no1 [Compound N8]
> 7.00	CC(C)(C)c1cc(NC(=O)Nc2ccc(NC(=O)c3cn4nc(Cl)ccc4n3)cc2)no1 [Compound N9]
6.00 to 7.00	Cn1nc(C(C)(C)C)cc1C(=O)Nc1ccc(NC(=O)Nc2cc(C(C)(C)C)on2)cc1 [Compound N10]
< 5.00	Cn1nc(-c2ccccc2)c(C(=O)Nc2ccc(NC(=O)Nc3cc(C(C)(C)C)on3)cc2)c1Cl [Compound N11]
